14 compounds from patent publication US20250230193A1, “CYCLIC COMPOUND HAVING SELECTIVE KRAS INHIBITORY EFFECT ON HRAS AND NRAS” (CHUGAI SEIYAKU KABUSHIKI KAISHA, priority 2022, published 2025) can be followed below.

Assay [1] deals with GDP-bound NRAS wild-type protein (Homo sapiens, UniProt P01111). The assay can be described thus: Binding to NRAS by surface plasmon resonance (SPR), Single Cycle Kinetics. Conditions: KD ratio NRAS/KRAS, SPR. On the technique in general: In SPR one partner is held on a chip, and binding of the other changes the refractive index at the surface.
The target of assay [2] is GDP-bound HRAS wild-type protein (Homo sapiens, UniProt P01112). The assay can be described thus: Binding to HRAS by surface plasmon resonance (SPR), Single Cycle Kinetics. The conditions noted are these: KD ratio HRAS/KRAS, SPR.
GDP-bound HRAS wild-type protein, sequence (P01112 whole entry): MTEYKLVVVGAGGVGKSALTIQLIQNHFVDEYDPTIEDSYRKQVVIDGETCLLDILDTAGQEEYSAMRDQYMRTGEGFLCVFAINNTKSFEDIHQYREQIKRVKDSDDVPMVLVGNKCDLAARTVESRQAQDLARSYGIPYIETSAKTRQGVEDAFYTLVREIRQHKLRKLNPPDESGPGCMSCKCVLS

GDP-bound NRAS wild-type protein, sequence (P01111 whole entry): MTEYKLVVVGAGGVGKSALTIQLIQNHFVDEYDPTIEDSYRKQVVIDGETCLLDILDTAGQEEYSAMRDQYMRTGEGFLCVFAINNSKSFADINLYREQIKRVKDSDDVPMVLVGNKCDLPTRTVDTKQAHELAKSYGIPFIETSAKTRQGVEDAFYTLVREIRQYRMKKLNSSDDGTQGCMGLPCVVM

For the compound `CCO[C@@H]1C[C@H]2C(=O)NC3(CCC3)C(=O)N(C)[C@@H](C3CCCC3)C(=O)N(C)[C@H](C(=O)N(C)C)CC(=O)N(C)[C@@H](COC)C(=O)N[C@@H]([C@@H](C)CC)C(=O)N(C)CC(=O)N(C)[C@H]3CCCCN(C3=O)[C@@H](Cc3ccc(C(F)(F)F)cc3)C(=O)N(C)CC(=O)N[C@@H](CCc3cc(F)c(C(F)(F)F)c(F)c3)C(=O)N2C1` [PP0704], in assay [1], the “NRAS/KRAS (ratio of KD value with respect to GDP-bound NRAS wild-type protein to KD value with respect to KRAS)” value is “C (A compound having a KD ratio of 0.1 or more and less than 3 is denoted as C)”. Also, the “HRAS/KRAS (ratio of KD value with respect to GDP-bound HRAS wild-type protein to KD value with respect to KRAS)” value in assay [2] is “C (A compound having a KD ratio of 0.1 or more and less than 3 is denoted as C)”.

For `CCO[C@@H]1C[C@H]2C(=O)NC3(CCC3)C(=O)N(C)[C@@H](C3CCCC3)C(=O)N(C)[C@H](C(=O)N(C)C)CC(=O)N(C)[C@@H](CCOC)C(=O)N[C@@H]([C@@H](C)CC)C(=O)N(C)CC(=O)N(C)[C@H]3CCCCN(C3=O)[C@@H](Cc3ccc(C(F)(F)F)cc3)C(=O)N(C)CC(=O)N[C@@H](CCc3cc(F)c(C(F)(F)F)c(F)c3)C(=O)N2C1` [PP0705], the “NRAS/KRAS (ratio of KD value with respect to GDP-bound NRAS wild-type protein to KD value with respect to KRAS)” value in assay [1] is “C (A compound having a KD ratio of 0.1 or more and less than 3 is denoted as C)”. Further, in assay [2], the “HRAS/KRAS (ratio of KD value with respect to GDP-bound HRAS wild-type protein to KD value with respect to KRAS)” value is “C (A compound having a KD ratio of 0.1 or more and less than 3 is denoted as C)”.

`CCO[C@@H]1C[C@H]2C(=O)NC3(CCC3)C(=O)N(C)[C@@H](C3CCCC3)C(=O)N(C)[C@H](C(=O)N(C)C)CC(=O)N(C)C[C@@H](C)C(=O)N[C@@H]([C@@H](C)CC)C(=O)N(C)CC(=O)N(C)[C@H]3CCCCN(C3=O)[C@@H](Cc3ccc(C(F)(F)F)cc3)C(=O)N(C)CC(=O)N[C@@H](CCc3cc(F)c(C(F)(F)F)c(F)c3)C(=O)N2C1` [PP0706]: the “NRAS/KRAS (ratio of KD value with respect to GDP-bound NRAS wild-type protein to KD value with respect to KRAS)” value in assay [1] was “B (a compound having 3 or more and less than 10 is denoted as B)”. Further, the “HRAS/KRAS (ratio of KD value with respect to GDP-bound HRAS wild-type protein to KD value with respect to KRAS)” value in assay [2] was “B (a compound having 3 or more and less than 10 is denoted as B)”.

For the compound `CCO[C@@H]1C[C@H]2C(=O)NC3(CCC3)C(=O)N(C)[C@@H](C3CCCC3)C(=O)N(C)[C@H](C(=O)N3CCOCC3)CC(=O)N(C)[C@@H](CC)C(=O)N[C@@H]([C@@H](C)CC)C(=O)N(C)CC(=O)N(C)[C@H]3CCCCN(C3=O)[C@@H](Cc3ccc(C(F)(F)F)cc3)C(=O)N(C)CC(=O)N[C@@H](CCc3cc(F)c(C(F)(F)F)c(F)c3)C(=O)N2C1` [PP0708], the “NRAS/KRAS (ratio of KD value with respect to GDP-bound NRAS wild-type protein to KD value with respect to KRAS)” value in assay [1] is “B (a compound having 3 or more and less than 10 is denoted as B)”. Besides, the “HRAS/KRAS (ratio of KD value with respect to GDP-bound HRAS wild-type protein to KD value with respect to KRAS)” value in assay [2] was “B (a compound having 3 or more and less than 10 is denoted as B)”.

For `CCC[C@H]1C(=O)N[C@@H]([C@@H](C)CC)C(=O)N(C)CC(=O)N(C)[C@H]2CCCCN(C2=O)[C@@H](Cc2ccc(C(F)(F)F)cc2)C(=O)N(C)CC(=O)N[C@@H](CCc2cc(F)c(C(F)(F)F)c(F)c2)C(=O)N2C[C@H](OCC)C[C@H]2C(=O)NC2(CCC2)C(=O)N(C)[C@@H](C2CCCC2)C(=O)N(C)[C@H](C(=O)N2CCOCC2)CC(=O)N1C` [PP0709], in assay [1], the “NRAS/KRAS (ratio of KD value with respect to GDP-bound NRAS wild-type protein to KD value with respect to KRAS)” value was “C (A compound having a KD ratio of 0.1 or more and less than 3 is denoted as C)”. Besides, the “HRAS/KRAS (ratio of KD value with respect to GDP-bound HRAS wild-type protein to KD value with respect to KRAS)” value in assay [2] was “B (a compound having 3 or more and less than 10 is denoted as B)”.

Consider `C=CC[C@H]1C(=O)N[C@@H]([C@@H](C)CC)C(=O)N(C)CC(=O)N(C)[C@H]2CCCCN(C2=O)[C@@H](Cc2ccc(C(F)(F)F)cc2)C(=O)N(C)CC(=O)N[C@@H](CCc2cc(F)c(C(F)(F)F)c(F)c2)C(=O)N2C[C@H](OCC)C[C@H]2C(=O)NC2(CCC2)C(=O)N(C)[C@@H](C2CCCC2)C(=O)N(C)[C@H](C(=O)N2CCOCC2)CC(=O)N1C` [PP0710], for which the “NRAS/KRAS (ratio of KD value with respect to GDP-bound NRAS wild-type protein to KD value with respect to KRAS)” value in assay [1] is “C (A compound having a KD ratio of 0.1 or more and less than 3 is denoted as C)”. Also, in assay [2], the “HRAS/KRAS (ratio of KD value with respect to GDP-bound HRAS wild-type protein to KD value with respect to KRAS)” value was “B (a compound having 3 or more and less than 10 is denoted as B)”.

Consider `C#CC[C@H]1C(=O)N[C@@H]([C@@H](C)CC)C(=O)N(C)CC(=O)N(C)[C@H]2CCCCN(C2=O)[C@@H](Cc2ccc(C(F)(F)F)cc2)C(=O)N(C)CC(=O)N[C@@H](CCc2cc(F)c(C(F)(F)F)c(F)c2)C(=O)N2C[C@H](OCC)C[C@H]2C(=O)NC2(CCC2)C(=O)N(C)[C@@H](C2CCCC2)C(=O)N(C)[C@H](C(=O)N2CCOCC2)CC(=O)N1C` [PP0711], for which the “NRAS/KRAS (ratio of KD value with respect to GDP-bound NRAS wild-type protein to KD value with respect to KRAS)” value in assay [1] is “C (A compound having a KD ratio of 0.1 or more and less than 3 is denoted as C)”. Further, the “HRAS/KRAS (ratio of KD value with respect to GDP-bound HRAS wild-type protein to KD value with respect to KRAS)” value in assay [2] is “B (a compound having 3 or more and less than 10 is denoted as B)”.

For the compound `CCO[C@@H]1C[C@H]2C(=O)NC3(CCC3)C(=O)N(C)[C@@H](C3CCCC3)C(=O)N(C)[C@H](C(=O)N3CCOCC3)CC(=O)N(C)[C@@H](CC3CC3)C(=O)N[C@@H]([C@@H](C)CC)C(=O)N(C)CC(=O)N(C)[C@H]3CCCCN(C3=O)[C@@H](Cc3ccc(C(F)(F)F)cc3)C(=O)N(C)CC(=O)N[C@@H](CCc3cc(F)c(C(F)(F)F)c(F)c3)C(=O)N2C1` [PP0712], the “NRAS/KRAS (ratio of KD value with respect to GDP-bound NRAS wild-type protein to KD value with respect to KRAS)” value in assay [1] is “C (A compound having a KD ratio of 0.1 or more and less than 3 is denoted as C)”. In addition, the “HRAS/KRAS (ratio of KD value with respect to GDP-bound HRAS wild-type protein to KD value with respect to KRAS)” value in assay [2] is “C (A compound having a KD ratio of 0.1 or more and less than 3 is denoted as C)”.

For the compound `CCO[C@@H]1C[C@H]2C(=O)NC3(CCC3)C(=O)N(C)[C@@H](C3CCCC3)C(=O)N(C)[C@H](C(=O)N3CCOCC3)CC(=O)N(C)[C@@H](CC3CCC3)C(=O)N[C@@H]([C@@H](C)CC)C(=O)N(C)CC(=O)N(C)[C@H]3CCCCN(C3=O)[C@@H](Cc3ccc(C(F)(F)F)cc3)C(=O)N(C)CC(=O)N[C@@H](CCc3cc(F)c(C(F)(F)F)c(F)c3)C(=O)N2C1` [PP0713], the “NRAS/KRAS (ratio of KD value with respect to GDP-bound NRAS wild-type protein to KD value with respect to KRAS)” value in assay [1] was “C (A compound having a KD ratio of 0.1 or more and less than 3 is denoted as C)”. Further, in assay [2], the “HRAS/KRAS (ratio of KD value with respect to GDP-bound HRAS wild-type protein to KD value with respect to KRAS)” value is “B (a compound having 3 or more and less than 10 is denoted as B)”.

For `CCO[C@@H]1C[C@H]2C(=O)NC3(CCC3)C(=O)N(C)[C@@H](C3CCCC3)C(=O)N(C)[C@H](C(=O)N3CCOCC3)CC(=O)N(C)[C@@H](CC(C)(C)C)C(=O)N[C@@H]([C@@H](C)CC)C(=O)N(C)CC(=O)N(C)[C@H]3CCCCN(C3=O)[C@@H](Cc3ccc(C(F)(F)F)cc3)C(=O)N(C)CC(=O)N[C@@H](CCc3cc(F)c(C(F)(F)F)c(F)c3)C(=O)N2C1` [PP0714], in assay [1], the “NRAS/KRAS (ratio of KD value with respect to GDP-bound NRAS wild-type protein to KD value with respect to KRAS)” value is “C (A compound having a KD ratio of 0.1 or more and less than 3 is denoted as C)”. Also, the “HRAS/KRAS (ratio of KD value with respect to GDP-bound HRAS wild-type protein to KD value with respect to KRAS)” value in assay [2] is “B (a compound having 3 or more and less than 10 is denoted as B)”.

In the case of `CCO[C@@H]1C[C@H]2C(=O)NC3(CCC3)C(=O)N(C)[C@@H](C3CCCC3)C(=O)N(C)[C@H](C(=O)N3CCOCC3)CC(=O)N(C)[C@@H](CC3CCCC3)C(=O)N[C@@H]([C@@H](C)CC)C(=O)N(C)CC(=O)N(C)[C@H]3CCCCN(C3=O)[C@@H](Cc3ccc(C(F)(F)F)cc3)C(=O)N(C)CC(=O)N[C@@H](CCc3cc(F)c(C(F)(F)F)c(F)c3)C(=O)N2C1` [PP0715], in assay [1], the “NRAS/KRAS (ratio of KD value with respect to GDP-bound NRAS wild-type protein to KD value with respect to KRAS)” value is “C (A compound having a KD ratio of 0.1 or more and less than 3 is denoted as C)”. In assay [2], the “HRAS/KRAS (ratio of KD value with respect to GDP-bound HRAS wild-type protein to KD value with respect to KRAS)” value is “B (a compound having 3 or more and less than 10 is denoted as B)”.

As for `CCO[C@@H]1C[C@H]2C(=O)NC3(CCC3)C(=O)N(C)[C@@H](C3CCCC3)C(=O)N(C)[C@H](C(=O)N3CCOCC3)CC(=O)N(C)[C@@H](CC3CCCCC3)C(=O)N[C@@H]([C@@H](C)CC)C(=O)N(C)CC(=O)N(C)[C@H]3CCCCN(C3=O)[C@@H](Cc3ccc(C(F)(F)F)cc3)C(=O)N(C)CC(=O)N[C@@H](CCc3cc(F)c(C(F)(F)F)c(F)c3)C(=O)N2C1` [PP0716], the “NRAS/KRAS (ratio of KD value with respect to GDP-bound NRAS wild-type protein to KD value with respect to KRAS)” value in assay [1] was “C (A compound having a KD ratio of 0.1 or more and less than 3 is denoted as C)”. Besides, in assay [2], the “HRAS/KRAS (ratio of KD value with respect to GDP-bound HRAS wild-type protein to KD value with respect to KRAS)” value was “B (a compound having 3 or more and less than 10 is denoted as B)”.

In the case of `CCO[C@@H]1C[C@H]2C(=O)NC3(CCC3)C(=O)N(C)[C@@H](C3CCCC3)C(=O)N(C)[C@H](C(=O)N3CCOCC3)CC(=O)N(C)[C@@H](Cc3cccnc3)C(=O)N[C@@H]([C@@H](C)CC)C(=O)N(C)CC(=O)N(C)[C@H]3CCCCN(C3=O)[C@@H](Cc3ccc(C(F)(F)F)cc3)C(=O)N(C)CC(=O)N[C@@H](CCc3cc(F)c(C(F)(F)F)c(F)c3)C(=O)N2C1` [PP0718], the “NRAS/KRAS (ratio of KD value with respect to GDP-bound NRAS wild-type protein to KD value with respect to KRAS)” value in assay [1] was “C (A compound having a KD ratio of 0.1 or more and less than 3 is denoted as C)”. Further, in assay [2], the “HRAS/KRAS (ratio of KD value with respect to GDP-bound HRAS wild-type protein to KD value with respect to KRAS)” value was “B (a compound having 3 or more and less than 10 is denoted as B)”.

`CCO[C@@H]1C[C@H]2C(=O)NC3(CCC3)C(=O)N(C)[C@@H](C3CCCC3)C(=O)N(C)[C@H](C(=O)N3CCOCC3)CC(=O)N(C)[C@@H](COC)C(=O)N[C@@H]([C@@H](C)CC)C(=O)N(C)CC(=O)N(C)[C@H]3CCCCN(C3=O)[C@@H](Cc3ccc(C(F)(F)F)cc3)C(=O)N(C)CC(=O)N[C@@H](CCc3cc(F)c(C(F)(F)F)c(F)c3)C(=O)N2C1` [PP0719]: the “NRAS/KRAS (ratio of KD value with respect to GDP-bound NRAS wild-type protein to KD value with respect to KRAS)” value in assay [1] is “C (A compound having a KD ratio of 0.1 or more and less than 3 is denoted as C)”. Further, the “HRAS/KRAS (ratio of KD value with respect to GDP-bound HRAS wild-type protein to KD value with respect to KRAS)” value in assay [2] is “B (a compound having 3 or more and less than 10 is denoted as B)”.
